Results as given in ChEMBL document CHEMBL1146493, “Effect of phenolic glycosides on Agrobacterium tumefaciens virH gene induction and plant transformation” (J Nat Prod, 2004).
Calls of active or inactive are those of the source. The rule behind the calls is not given here.

Columns and labels:
Nicotiana tabacum [1] = assay: Increase in genetic transformation in tobacco leaf explant co-cultured with Agrobacterium tumefaciens A348 assessed as callus formation at 100 uM after 4 weeks; assay type: functional
Nicotiana tabacum [2] = assay: Increase in genetic transformation in tobacco leaf explant co-cultured with Agrobacterium tumefaciens A348 assessed as buds formation at 100 uM after 4 weeks; assay type: functional
[3] = test system: Agrobacterium tumefaciens; assay: Inhibition of virH gene expression in Agrobacterium tumefaciens A348 overexpressing pSM219 virH::lacZ assessed as beta-galactosidase activity at 100 uM after 18 hrs; assay type: functional, organism-based
[4] = test system: Agrobacterium tumefaciens; assay: Induction of virH gene expression in Agrobacterium tumefaciens A348 overexpressing pSM219 virH::lacZ assessed as beta-galactosidase activity at 0.5 mM after 18 hrs relative to acetosyringone; assay type: functional
Nicotiana tabacum [5] = assay: Increase in transformation frequency of tobacco leaf explant co-cultured with Agrobacterium tumefaciens A348 assessed as explant survival at 100 uM after 21 days; assay type: functional
Nicotiana tabacum [6] = assay: Increase in transformation frequency of tobacco leaf explant co-cultured with Agrobacterium tumefaciens A348 assessed as transgenic callus formation at 100 uM after 21 days; assay type: functional
[7] = test system: Agrobacterium tumefaciens; assay: Induction of virH gene expression in Agrobacterium tumefaciens A348 overexpressing pSM219 virH::lacZ assessed as beta-galactosidase activity at 1 mM after 18 hrs relative to acetosyringone; assay type: functional
[8] = Toxicity in tobacco leaf explant co-cultured with Agrobacterium tumefaciens A348 assessed as mortality at 500 uM after 7 days; settings: nicotiana tabacum, 168 h
[9] = test system: Agrobacterium tumefaciens; assay: Toxicity in Agrobacterium tumefaciens A348 overexpressing pSM219 virH::lacZ assessed as […] at 5 mM after 18 hrs; assay type: organism-based; settings: in vivo, 5000 µM
[10] = test system: Agrobacterium tumefaciens; assay: Induction of virH gene expression in Agrobacterium tumefaciens A348 overexpressing pSM219 virH::lacZ assessed as beta-galactosidase activity at 100 uM after 18 hrs; assay type: functional, organism-based
[11] = test system: Agrobacterium tumefaciens; assay: Decrease in virH gene expression in Agrobacterium tumefaciens A348 overexpressing pSM219 virH::lacZ assessed as beta-galactosidase activity at >=250 uM after 18 hrs; assay type: functional, organism-based
[12] = Toxicity in tobacco leaf explant co-cultured with Agrobacterium tumefaciens A348 assessed as detrimental genetic transformation at 500 uM after 4 weeks; settings: nicotiana tabacum, 672 h
[13] = Toxicity in tobacco leaf explant co-cultured with Agrobacterium tumefaciens A348 assessed as mortality at 2 mM within 3 to 4 days; settings: nicotiana tabacum, 2000 µM
[14] = test system: Agrobacterium tumefaciens; assay: Induction of virH gene expression in Agrobacterium tumefaciens A348 overexpressing pSM219 virH::lacZ assessed as beta-galactosidase activity at 10 mM after 18 hrs relative to acetosyringone; assay type: functional, organism-based

Row | Structure (SMILES) | Activity (Nicotiana tabacum [1]) | Activity (Nicotiana tabacum [2]) | Activity [3] | Activity (Nicotiana tabacum [5]) | Activity (Nicotiana tabacum [6]) | also measured
1 | COc1cc(/C=C/C(C)=O)cc(OC)c1O[C@@H]1O[C@H](CO)[C@@H](O)[C@H](O)[C@H]1O | Active | Active | Active |  |  | 
2 | COc1cc(C(C)=O)cc(OC)c1O[C@H]1O[C@H](CO)[C@@H](O)[C@H](O)[C@H]1O | Active | Active | Active | Active | Active | Activity [4]: 25%
3 | COc1cc(C(C)=O)ccc1O[C@@H]1OC[C@@H](O)[C@H](O)[C@H]1O |  |  | Active |  |  | 
4 | COc1cc(C(C)=O)cc(OC)c1O[C@@H]1OC[C@@H](O)[C@H](O)[C@H]1O | Active | Active | Active | Active | Active | Activity [7]: 50%; Activity [4]: 25%
5 | COc1cc(C(=O)/C=C/c2ccc(O)cc2)cc(OC)c1O | Active | Active |  |  |  | 
6 | COc1cc(C(C)=O)cc(OC)c1O [ACETOSYRINGONE] | Active | Active |  | Active | Active | Activity [8]: Toxic; Activity [9]: Toxic; Activity [10]: Active; Activity [11]: Active; Activity [12]: Toxic; Activity [13]: Toxic
7 | COc1cc(/C=C/C(C)=O)cc(OC)c1O | Active | Active |  |  |  | Activity [10]: Active
8 | COc1cc(C(=O)/C=C/c2ccc(O)cc2)cc(OC)c1O[C@@H]1O[C@H](CO)[C@@H](O)[C@H](O)[C@H]1O | Active | Active |  |  |  | 
9 | COc1cc(C(C)=O)cc(OC)c1O[C@@H]1O[C@H](CO)[C@@H](O)[C@H](O)[C@H]1O [GLUCOACETOSYRINGONE] | Active | Active | Active | Active | Active | Activity [14]: Active; Activity [12]: Non-toxic; Activity [13]: Non-toxic
10 | CC(=O)c1ccc(O[C@@H]2OC[C@@H](O)[C@H](O)[C@H]2O)cc1 |  |  | Active |  |  | 
